Results: patent US20220168298A1, “CANCER TREATMENT” (Janssen Pharmaceutica NV, priority 2019, published 2022)
Where two headings read alike, the source gives them in different places.

[1] = Regimen 2 6 mg continuous (n = 78)

Method: Study treatment is administered on 28-day cycles. Prior to interim analysis 1, there were 2 treatment regimens.
Safety was assessed continuously by the investigator and based on medical review of AE reports and the results of vital sign measurements, physical examinations, clinical laboratory tests, ECOG performance status, and other safety evaluations.
Safety data are presented for the safety population (N=207, enrolled between May 7, 2015, and Dec. 5, 2017), defined as patients who received at least 1 dose of study treatment.
An analysis was done on 99 NCT02365597 patients who received the dose regimen of 8 mg/day continuous (pharmacodynamically guided uptitrated to 9 mg/d per serum phosphate as described herein, Regimen 3) to explore efficacy among high-risk patients. […] High-risk patients are defined as patients meeting one or more of the following criteria: • age ≥75 years; • ECOG PS 2 (Eastern Cooperative Oncology Group Performance Status 2; Oken M, Creech R, Tormey D, et al. Toxicity and response criteria of the Eastern Cooperative Oncology Group. Am J Clin Oncol. 1982; 5:649-655) • hemoglobin <10 g/dL; • visceral metastases of the liver, lung and/or bone; • 2 or 3 Bellmunt risk factors (Bellmunt J, Choueiri T K, Fougeray R, et al: Prognostic factors in patients with advanced transitional cell carcinoma of the urothelial tract experiencing treatment failure with platinum-containing regimens.
Final analysis for NCT02365597 was conducted, per protocol 12 months after the last subject was enrolled.

For COc1cc(OC)cc(N(CCNC(C)C)c2ccc3ncc(-c4cnn(C)c4)nc3c2)c1 [erdafitinib, N-(3,5-dimethoxyphenyl)-N′-(1-methylethyl)-N-[3-(1-methyl-1H-pyrazol-4-yl)quinoxalin-6-yl]ethane-1,2-diamine], the “TRAE Nail dystrophy, Grade ≥3” value [1] was 0 n, the “TRAE Palmar-plantar erythrodysaesthesia syndrome, Grade ≥3” value [1] was 0 n and the “TRAE Paronychia, Grade ≥3” value [1] was 0 n. For the same compound, the treatment-related deaths (across all dose regimens (N = 207)) was “no treatment-related deaths”, the treatment-related deaths (final analysis, 101 patients) was “no treatment-related deaths” and the “CSR events resolved on the data cut-off date” value (human, in vivo) was 63%. The “CSR events resolved on the data cut-off date, n/N” value (human, in vivo) was 17/27, the “CSR events that were Grade 1 or 2” value (human, in vivo) was 85% and the “CSR events that were Grade 1 or 2, n/N” value (human, in vivo) was 23/27. For the same compound, the “Treatment discontinuation rates for adverse events” value (human, in vivo) was “approximately 20%”, the “dosage discontinued for CSR” value (human, in vivo) was 3 patients and the “dosage interrupted for CSR” value (human, in vivo) was 8 patients. The “dosage reduced for CSR” value (human, in vivo) was 13 patients, the “grade 3/4 serious adverse events proportions by subgroup, range” value (human, in vivo) was 26.7-36.4% and the “ongoing CSR events that were Grade 1” value (human, in vivo) was 60%. The “ongoing CSR events that were Grade 1, n/N” value (human, in vivo) was 6/10, the patients reporting retinopathy (human, in vivo) was 2 patients and the “patients reporting retinopathy, grade 2” value (human, in vivo) was 1 n. For the same compound, the “patients reporting retinopathy, grade 3” value (human, in vivo) was 1 n, the “patients with Central serous retinopathy (CSR) events” value (human, in vivo) was 27% and the “patients with Central serous retinopathy (CSR) events, n/N” value (human, in vivo) was 27/101.
